Reference: ChEMBL document CHEMBL1201862, “PubChem BioAssay data set” (2004)
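Following 48 hours of exposure in 96-well plates, responses at five concentrations were used to interpolate endpoints linearly. GI50: concentration for 50% inhibition of growth.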 Active and inactive are the calls of the source. Cut-off read from the data, not from the text of the source: active = GI50 up to about 1.1 µM and inactive = higher.

Assays:
Assay in all cases: NCI tumour cell line growth inhibition, 48 h
[1] = tested on: SW-620
[2] = tested on: KM12
[3] = tested on: NCI-H460
[4] = tested on: MCF7
[5] = tested on: Hs-578T
[6] = tested on: NCI-H522
[7] = tested on: A498
[8] = tested on: UACC-257
[9] = tested on: ACHN
[10] = tested on: SK-MEL-28
[11] = tested on: LOX IMVI
[12] = tested on: NCI/ADR-RES
[13] = tested on: HT-29
[14] = tested on: OVCAR-5
[15] = tested on: MDA-MB-435
[16] = tested on: DU-145
[17] = tested on: MDA-N
[18] = tested on: OVCAR-3
[19] = tested on: SNB-75
[20] = tested on: K562
[21] = tested on: RPMI-8226
[22] = tested on: 786-0
[23] = tested on: SNB-19
[24] = tested on: UO-31
[25] = tested on: TK-10
[26] = tested on: SF-539
[27] = tested on: OVCAR-8
[28] = tested on: SF-295
[29] = tested on: M14
[30] = tested on: SK-MEL-2
[31] = tested on: SN12C
[32] = tested on: EKVX
[33] = tested on: SK-MEL-5
[34] = tested on: HOP-62
[35] = tested on: T47D
[36] = tested on: PC-3
[37] = tested on: CCRF-CEM
[38] = tested on: SK-OV-3
[39] = tested on: HL-60
[40] = tested on: MOLT-4
[41] = tested on: RXF 393
[42] = tested on: CAKI-1
[43] = tested on: MDA-MB-231
[44] = tested on: COLO 205
[45] = tested on: NCI-H226
[46] = tested on: HCT-116
[47] = tested on: UACC-62
[48] = tested on: IGROV-1
[49] = tested on: NCI-H23
[50] = tested on: OVCAR-4
[51] = tested on: HCT-15
[52] = tested on: U-251
[53] = tested on: HOP-92
[54] = tested on: SR
[55] = tested on: SF-268
[56] = tested on: A549
[57] = tested on: Malme-3M
[58] = tested on: HCC 2998
[59] = tested on: BT-549

`CC(=O)c1ccc(NCc2cc(O)ccc2O)cc1` was tested, and the GI50 [1] was 36.7 µM (inactive), the GI50 [2] was 14.2 µM (inactive) and the GI50 [3] was 23.1 µM (inactive). For the same compound, the GI50 [4] was 21.7 µM (inactive), the GI50 [5] was 29.4 µM (inactive) and the GI50 [6] was 31.3 µM (inactive). The GI50 [7] was 36.1 µM (inactive), the GI50 [8] was 17.5 µM (inactive) and the GI50 [9] was 18.5 µM (inactive). For the same compound, the GI50 [10] was 40.3 µM (inactive), the GI50 [11] was 24.8 µM (inactive) and the GI50 [12] was 36.5 µM (inactive). For the same compound, the GI50 [13] was 32.1 µM (inactive), the GI50 [14] was 21.3 µM (inactive) and the GI50 [15] was 21.1 µM (inactive). The GI50 [16] was 23 µM (inactive), the GI50 [17] was 20.4 µM (inactive) and the GI50 [18] was 7.06 µM (inactive). For the same compound, the GI50 [19] was 13.7 µM (inactive), the GI50 [20] was 32.2 µM (inactive) and the GI50 [21] was 5.38 µM (inactive). The GI50 [22] was 13.3 µM (inactive), the GI50 [23] was 38.8 µM (inactive) and the GI50 [24] was 11.4 µM (inactive). For the same compound, the GI50 [25] was 15.3 µM (inactive), the GI50 [26] was 14.5 µM (inactive) and the GI50 [27] was 23.8 µM (inactive). For the same compound, the GI50 [28] was 17.8 µM (inactive), the GI50 [29] was 19.1 µM (inactive) and the GI50 [30] was 20.4 µM (inactive). For the same compound, the GI50 [31] was 25.5 µM (inactive), the GI50 [32] was 30 µM (inactive) and the GI50 [33] was 18.3 µM (inactive). For the same compound, the GI50 [34] was 20.6 µM (inactive), the GI50 [35] was 14.3 µM (inactive) and the GI50 [36] was 15.2 µM (inactive). The GI50 [37] was 8.55 µM (inactive), the GI50 [38] was 23 µM (inactive) and the GI50 [39] was 3.53 µM (inactive). For the same compound, the GI50 [40] was 3.85 µM (inactive), the GI50 [41] was 14 µM (inactive) and the GI50 [42] was 17.9 µM (inactive). The GI50 [43] was 21.8 µM (inactive), the GI50 [44] was 11.8 µM (inactive) and the GI50 [45] was 34.7 µM (inactive). The GI50 [46] was 17.4 µM (inactive), the GI50 [47] was 15.3 µM (inactive) and the GI50 [48] was > 100 µM (inactive). The GI50 [49] was 22.5 µM (inactive), the GI50 [50] was 18.5 µM (inactive) and the GI50 [51] was 24.9 µM. For the same compound, the GI50 [52] was 21.8 µM (inactive) and the GI50 [53] was 17.9 µM (inactive).
`c1cnc2c(c1)Nc1cnncc1S2` was tested, and the GI50 [1] was > 100 µM (inactive), the GI50 [2] was > 100 µM (inactive) and the GI50 [3] was > 100 µM (inactive). For the same compound, the GI50 [4] was > 100 µM (inactive), the GI50 [5] was > 100 µM (inactive) and the GI50 [6] was > 100 µM (inactive). For the same compound, the GI50 [7] was > 100 µM (inactive), the GI50 [8] was > 100 µM (inactive) and the GI50 [9] was > 100 µM (inactive). For the same compound, the GI50 [10] was > 100 µM (inactive), the GI50 [11] was > 100 µM (inactive) and the GI50 [12] was > 100 µM (inactive). For the same compound, the GI50 [13] was > 100 µM (inactive), the GI50 [14] was > 100 µM (inactive) and the GI50 [15] was > 100 µM (inactive). The GI50 [16] was > 100 µM (inactive), the GI50 [17] was > 100 µM (inactive) and the GI50 [18] was > 100 µM (inactive). For the same compound, the GI50 [19] was 12.2 µM (inactive), the GI50 [20] was > 100 µM (inactive) and the GI50 [21] was > 100 µM (inactive). For the same compound, the GI50 [22] was > 100 µM (inactive), the GI50 [23] was > 100 µM (inactive) and the GI50 [24] was 84.1 µM (inactive). For the same compound, the GI50 [25] was > 100 µM (inactive), the GI50 [26] was > 100 µM (inactive) and the GI50 [27] was > 100 µM (inactive). For the same compound, the GI50 [28] was > 100 µM (inactive), the GI50 [54] was 53.3 µM (inactive) and the GI50 [29] was > 100 µM (inactive). The GI50 [30] was > 100 µM (inactive), the GI50 [31] was > 100 µM (inactive) and the GI50 [32] was > 100 µM (inactive). The GI50 [33] was > 100 µM (inactive), the GI50 [34] was > 100 µM (inactive) and the GI50 [35] was > 100 µM (inactive). For the same compound, the GI50 [36] was > 100 µM (inactive), the GI50 [55] was > 100 µM (inactive) and the GI50 [37] was > 100 µM (inactive). The GI50 [38] was > 100 µM (inactive), the GI50 [39] was > 100 µM (inactive) and the GI50 [40] was > 100 µM (inactive). For the same compound, the GI50 [41] was > 100 µM (inactive), the GI50 [56] was > 100 µM (inactive) and the GI50 [42] was 24.1 µM (inactive). The GI50 [43] was > 100 µM (inactive), the GI50 [57] was > 100 µM (inactive) and the GI50 [44] was > 100 µM (inactive). For the same compound, the GI50 [45] was 86.9 µM (inactive), the GI50 [46] was > 100 µM (inactive) and the GI50 [47] was 77.6 µM (inactive). The GI50 [48] was > 100 µM (inactive), the GI50 [58] was > 100 µM (inactive) and the GI50 [49] was > 100 µM (inactive). For the same compound, the GI50 [50] was > 100 µM (inactive), the GI50 [51] was greater than 100 µM and the GI50 [52] was > 100 µM (inactive). The GI50 [53] was 86.3 µM (inactive).
For `CCOc1cc2c(cc1O)/C(=N\OC)C[C@@H]1[C@@H]2CC[C@]2(C)[C@@H](O)CC[C@@H]12`, the GI50 [1] was 0.212 µM (active), the GI50 [2] was 0.423 µM (active) and the GI50 [3] was 0.308 µM (active). The GI50 [4] was 0.0238 µM (active), the GI50 [5] was 0.0698 µM (active) and the GI50 [6] was 0.0288 µM (active). The GI50 [7] was 0.0908 µM (active), the GI50 [9] was 1.09 µM (active) and the GI50 [10] was 1.61 µM (inactive). For the same compound, the GI50 [11] was 0.122 µM (active), the GI50 [12] was 0.0319 µM (active) and the GI50 [13] was 3.81 µM (inactive). For the same compound, the GI50 [14] was 21.6 µM (inactive), the GI50 [15] was 0.0282 µM (active) and the GI50 [16] was 0.326 µM (active). For the same compound, the GI50 [17] was < 0.0163 µM (active), the GI50 [18] was < 0.0205 µM (active) and the GI50 [19] was 0.0219 µM (active). The GI50 [20] was 0.0596 µM (active), the GI50 [21] was 0.167 µM (active) and the GI50 [22] was < 0.0403 µM (active). For the same compound, the GI50 [23] was 2.11 µM (inactive), the GI50 [24] was 0.875 µM (active) and the GI50 [25] was > 32.9 µM (inactive). The GI50 [27] was 0.217 µM (active), the GI50 [59] was 1.71 µM (inactive) and the GI50 [54] was 0.0127 µM (active). For the same compound, the GI50 [29] was 0.15 µM (active), the GI50 [30] was < 0.0358 µM (active) and the GI50 [31] was 0.372 µM (active). For the same compound, the GI50 [32] was 10.8 µM (inactive), the GI50 [33] was < 0.0253 µM (active) and the GI50 [34] was < 0.0461 µM (active). For the same compound, the GI50 [36] was 1.39 µM (inactive), the GI50 [55] was 0.625 µM (active) and the GI50 [37] was 0.299 µM (active). The GI50 [38] was 0.243 µM (active), the GI50 [39] was 0.00548 µM (active) and the GI50 [40] was 0.255 µM (active). For the same compound, the GI50 [41] was < 0.01 µM (active), the GI50 [56] was 0.542 µM (active) and the GI50 [43] was 0.685 µM (active). The GI50 [57] was 0.129 µM (active), the GI50 [44] was 16.3 µM (inactive) and the GI50 [45] was 0.106 µM (active). The GI50 [46] was < 0.0296 µM (active), the GI50 [47] was < 0.0306 µM (active) and the GI50 [48] was 0.923 µM (active). For the same compound, the GI50 [58] was 1.25 µM (inactive), the GI50 [49] was 0.324 µM (active) and the GI50 [50] was 10.7 µM (inactive). The GI50 [51] was 0.0653 µM, the GI50 [52] was 0.135 µM (active) and the GI50 [53] was 7.64 µM (inactive).
